Assay results from patent publication EP0808325B1, “[…] […] SERIES FOR […] GABA RECEPTOR” (priority 1994, dated 1996).
pIC50: −log10 of the molar value.

What was measured:
mice = experiment: elevated plus-maze; assay type: in vivo, N.I.H. Swiss-Webster mice
Excerpt: The theoretical basis for the elevated plus-maze test is similar to that of the light/dark transition test. As described by Pellow et al., J. Neurosci. Meth 14:149-167 (1985), the elevated plus-maze apparatus is designed to utilize the mice's natural aversion to open spaces. The apparatus consists of two open-arms and two enclosed-arms. The elevated plus-maze test allows for two measures of anxiety, the number of entries into the open-arms and the time spent on the open-arms, both expressed as a percentage of the total number of entries and time spent in/on both the open-arms and enclosed-arms.
Male N.I.H. Swiss-Webster mice (Harlan, Indianapolis, IN) weighing 15-20 g were housed four per cage in polyethylene cages with sawdust bedding. The colony room was environmentally controlled (22°C) with a 12 hr light/dark cycle (0600-1800 hr). Food and water were available ad libitum, except during testing. The experiments were run from 0700-1500 hr and groups were counterbalanced for time of day effects. Mice were only administered drug or vehicle once.
The method used was previously described (Lister, Psychopharmacol. 92:180-185 (1987)). The apparatus included two open arms perpendicular to two enclosed arms elevated 50 cm from the floor. Each arm was 50 cm long and the walls of the enclosed arms were 40 cm tall. The maze was made completely of black plexiglass. Incandescent 200 W light bulbs were above each of the open arms to produce a strong contrast between the open arms and the enclosed arms.
Ten minutes after an injection, the N.I.H. Swiss-Webster mice were placed in the center of the plus-maze facing an open arm. During the 5 min test period, the number of entries onto the open arms and the enclosed arms, and the time spent in the open arms and enclosed arms were measured. All four paws had to be within an arm for the dependent variable to be measured. Therefore, the time spent in the center of the maze is not counted, so the total time spent in the open arms and the enclosed arms may not equal 5 min. […]

GR complex = experiment: modulation of [35S]TBPS binding in rat cerebral cortex P2 homogenate; set-up: species or system Sprague-Dawley rats; IMAX: unit not given here; settings: for pIC50: concentration of compounds to inhibit 50% of control [35S]TBPS binding, 2 nM [35S]TBPS, 25°C, 90 minutes; for IMAX: maximum inhibition of [35S]TBPS binding, I* = Inactive
Description: We performed several experiments to determine the nature of the modulation of [^35S]TBPS as affected by the compounds of the invention.
These procedures were performed as follows:
Brains from male Sprague-Dawley rats were removed immediately following sacrifice and the cerebral cortices dissected over ice. […] Briefly, the cortices were gently homogenized in 0.32 M sucrose followed by centrifugation at 1000 x g for 10 minutes. The supernatant was collected and centrifuged at 9000 x g for 20 minutes. The resultant P2 pellet was suspended as a 10% (original wet weight/volume) suspension in 50 mM Na/K phosphate buffer (pH 7.4) 200 mM NaCI to form the homogenate.
One hundred microliter […] aliquots of the P2 homogenate (0.5 milligrams (mg) protein) were incubated with 2 nanomolar (nM) [^35S]TBPS (70-110 curies/millimole;, New England Nuclear, Boston, MA) in the presence or absence of the naturally occurring steroids or their synthetic derivatives to be tested. The tested compounds were dissolved in dimethylsulfoxide (Baker Chem. Co., Phillipsbury, NJ) and added to the incubation mixture in 5 µL aliquots. The incubation mixture was brought to a final volume of 1 mL with buffer. Nonspecific binding was defined as binding in the presence of […]. The effect and specificity of GABA (Sigma Chem. Co., St. Louis, MO) was evaluated by performing all assays in the presence of GABA plus (+)bicuculline (Sigma Chem. Co.). Incubations maintained at 25°C for 90 minutes (steady state conditions) were terminated by rapid filtration through glass fiber filters (No. 32, Schleicher and Schuell, Keene, NH). Filter-bound radioactivity was quantitated by liquid scintillation spectrophotometry.
Various compounds were screened to determine their potential as modulators of [^35S]TBPS binding in vitro. These assays were performed in accordance with the above discussed procedures. […] It is an indication of a compound's in vitro potency. Maximum inhibition is an indication of a compound's in vitro efficacy.

[1] = test system: metrazol induced convulsions; experiment: animal or person; assay type: in vivo, mice; settings: IP
Description: Experiments were also performed to determine the physiological relevance of neuroactive steroid and GABA receptor interactions by assessing the ability of the compounds of and used in the invention to prevent metrazol induced convulsions in mice. […] The time to onset of myoclonus (presence of forelimb clonic activity) induced by metrazol was determined by observing each mouse for a period of 30 minutes. […]
The anticonvulsant tests are similar to that described above. […] The number of animals with tonic and/or clonic convulsions was recorded. In the maximal electroshock test, 50 mA of current at 60 Hz was delivered through corneal electrodes for 200 msec to induce tonic seizure. The ability of compounds to abolish the tonic component was defined as the endpoint. General CNS depression potential was determined by a rotorod test 10 minutes after the injection of compounds where the number of mice staying on a rotating (6 rpm) rod for 1 minute in one of the three trials was determined. […]

[2] = 50% hpbcd, 10 mg/kg, 10 minutes prior to metrazol (85 mg/kg)

| SMILES | pIC50 (GR complex; no unit printed) | IMAX (GR complex) | % Protected [1, 2] [%] | also measured |
| --- | --- | --- | --- | --- |
| C#C[C@@]1(O)CC[C@@]2(C)[C@H](CC[C@@H]3[C@@H]2CC[C@]2(C)[C@@H](C(C)O)CC[C@@H]32)C1 (stereo partly drawn) [3α,20-Dihydroxy-3β-ethynyl-5β-pregnane] | – | – | – | % Control (mice; IP, dmso, 10 mg/kg): 178% |
| CCC(O)C1CCC2C3CCC4CC(C)(O)CCC4(C)C3CCC12C (stereo not drawn) [3α,20α-Dihydroxy-3β,21-dimethyl-5α-pregnane] | 6.29 | 48 | – | % Protected ([1]; dmso, 10 mg/kg): 0%; % Control (mice; IP, dmso, 10 mg/kg): 73% |
| CC(O)C1CCC2C3CCC4CC(C)(O)CCC4(C)C3CCC12C (stereo not drawn) [3α,20α-dihydroxy-3β-methyl-5α-pregnane] | 6.78 | 52 | – | % Protected ([1]; micro soln., 100 mg/kg): 60%; % Control (mice; IV, micro soln., 10 mg/kg): 174.5% |
| C#C[C@@]1(O)CC[C@@]2(C)[C@H](CC[C@@H]3[C@@H]2CC[C@]2(C)[C@@H](C(=O)COC(C)=O)CC[C@@H]32)C1 [3α,21-Dihydroxy-3β+ethynyl-5β-pregnan-20-one 21-acetate] | 6.60 | 101 | 62.5 | % Control (mice; IP, 50% hpbcd, 10 mg/kg): 159% |
| C[C@]12CC[C@H]3[C@@H](CC[C@@H]4C[C@@](O)(C(F)(F)F)CC[C@@H]43)[C@@H]1CC[C@@H]2C(=O)CO [3α,21-Dihydroxy-3β-trifluoromethyl-5β-19-norpregnan-20-one] | 6.61 | 100 | 118.8 | % Control (mice; IP, 50% hpbcd, 10 mg/kg): 140% |
| CC(=O)OCC(=O)[C@H]1CC[C@H]2[C@@H]3CC[C@H]4C[C@](C)(O)CC[C@]4(C)[C@H]3CC[C@]12C [3α,21-Hydroxy-3β-methyl-5α-pregnan-20-one, 21-acetate] | 6.55 | 93 | – | % Protected ([1]; micro soln., 10 mg/kg): 10% |
| C[C@]12CC[C@](O)(CF)C[C@@H]1CC[C@@H]1[C@@H]2CC[C@]2(C)[C@@H](C(=O)CO)CC[C@@H]12 [3α,21-dihydroxy-3β-fluoromethyl-5α-pregnan-20-one] | 6.23 | 101 | 25 | % Control (mice; IP, 50% hpbcd, 10 mg/kg): 109% |
| C[C@@]1(O)CC[C@@]2(C)[C@@H](CC[C@@H]3[C@@H]2CC[C@]2(C)[C@@H](C(=O)COC(=O)CCC(=O)[O-])CC[C@@H]32)C1.[Na+] [3α,21-dihydroxy-3β-methyl-5α-pregnan-20-one 21-Hemisuccinate, sodium salt] | – | 104 | – | pIC50 (GR complex; unit inferred, sodium salt): 6.68; % Protected ([1]; micro soln., 10 mg/kg): 11.11% |
| C[C@@]1(O)CC[C@@]2(C)[C@@H](CC[C@@H]3[C@@H]2CC[C@]2(C)[C@@H](C(=O)COC(=O)CCC(=O)O)CC[C@@H]32)C1 [3α,21-dihydroxy-3β-methyl-5α-pregnan-20-one 21-hemisuccinate] | 6.62 | 92 | – | % Protected ([1]; water, 10 mg/kg): 37.5% |
| C[C@@]1(O)CC[C@@]2(C)[C@@H](CC[C@@H]3[C@@H]2CC[C@]2(C)[C@@H](C(=O)CO)CC[C@@H]32)C1 [3α,21-dihydroxy-3β-methyl-5α-pregnan-20-one] | 6.59 | 96 | 87.5 | – |
| CC12CCC(O)(C(F)(F)F)CC1CCC1C2CCC2(C)C(C(=O)COC(=O)C=CC(=O)[O-])CCC12.[Na+] (stereo not drawn) [3α,21-dihydroxy-3β-trifluoromethyl-5β-pregnan-20-one 21 hemifumarate sodium salt] | 6.26 | 102 | – | % Protected ([1]; water, 10 mg/kg): 50%; % Control (mice; IP, water, dose column prints 50% hpbcd): 126% |
| CC(=O)OCC(=O)[C@H]1CC[C@H]2[C@@H]3CC[C@H]4C[C@H](O)CC[C@]4(C)[C@H]3CC[C@]12C [3α,21-dihydroxy-5α-pregnan-20-one 21-acetate] | 7.12 | 99 | 50 | % Control (mice; IP, 50% hpbcd, 10 mg/kg): 133% |
| C[C@]12CC[C@@H](O)C[C@@H]1CC[C@@H]1[C@@H]2CC[C@]2(C)[C@@H](C(=O)COC(=O)CCC(=O)[O-])CC[C@@H]12.[Na+] [3α,21-dihydroxy-5α-pregnan-20-one 21-hemisuccinate, sodium salt] | – | 92 | – | pIC50 (GR complex; unit inferred, sodium salt): 6.60; % Protected ([1]; water, 60 mg/kg): 100% |
| CC(=O)OCC(=O)[C@H]1CC[C@H]2[C@@H]3CC[C@@H]4C[C@H](O)CC[C@]4(C)[C@H]3CC[C@]12C [3α,21-dihydroxy-5β-pregnan-20-one 21-acetate] | 6.92 | 49 | 25 | – |
| CC(=O)[C@H]1CC[C@H]2[C@@H]3CC[C@H]4C[C@](O)(C(F)(F)F)CC[C@]4(C)[C@H]3CC[C@]12C [3α-Hydroxy-3β-trifluoromethyl-5α-pregnan-20-one] | 6.61 | 44 | 62.5 | – |
| CC(=O)C1CCC2C3CCC4CC(O)(C(F)(F)F)CCC4(C)C3C(=O)CC12C (stereo not drawn) [3α-Hydroxy-3β-trifluoromethyl-5β-pregnan-11,20-dione] | – | – | – | % Control (mice; IP, 50% hpbcd, 10 mg/kg): 112% |
| CC(=O)[C@H]1CC[C@H]2[C@@H]3CC[C@H]4C[C@](C)(O)CC[C@@H]4[C@H]3CC[C@]12C [3α-hydroxy-3β-methyl-5α-19-nor-pregnan-20-one] | 7.04 | 80 | – | % Protected ([1]; micro soln., 10 mg/kg): 37.5% |
| CC(=O)[C@H]1CC[C@H]2[C@@H]3CC[C@@H]4C[C@@](O)(C#CC5CC5)CC[C@]4(C)[C@H]3CC[C@]12C [3β-Cyclopropylethynyl-3α-hydroxy-5β-pregnan-20-one] | 7.66 | 94 | 87.5 | pIC50 (GR complex; no unit printed, listed as 3β-(cyclopropyl)ethynyl-3α-hydroxy-5β-pregnan-20-one): 7.49; IMAX (GR complex; listed as 3β-(cyclopropyl)ethynyl-3α-hydroxy-5β-pregnan-20-one): 97 |
| C#C[C@@]1(O)CC[C@@]2(C)[C@H](CC[C@H]3[C@@H]4CC[C@H](C(C)=O)[C@@]4(C)C=C[C@@H]32)C1 [3β-Ethynyl-3α-hydroxy-5β-pregn-11-en-20-one] | – | – | 75 | % Control (mice; IP, 50% hpbcd, 10 mg/kg): 233% |
| C#C[C@@]1(O)CC[C@@]2(C)[C@H](CC[C@H]3[C@@H]4CC[C@H](C(C)=O)[C@@]4(C)CC(=O)[C@@H]32)C1 [3β-Ethynyl-3α-hydroxy-5β-pregnan-11,20-dione] | – | – | – | % Control (mice; IP, 50% hpbcd, 5 mg/kg): 235.9% |
| C#C[C@@]1(O)CC[C@@]2(C)[C@H](CC[C@@H]3[C@@H]2CC[C@]2(C)[C@@H](C(=O)COC(=O)CCC(=O)OCC(=O)[C@H]4CC[C@H]5[C@@H]6CC[C@@H]7C[C@@](O)(C#C)CC[C@]7(C)[C@H]6CC[C@]45C)CC[C@@H]32)C1 [Bis (3α,21-dihydroxy-3β-ethynyl-5β-pregnan-20-one) 21-hemisuccinate] | 7.17 | 56 | 37.5 | – |
